Source: patent US20130102593A1, “PYRROLIDINE COMPOUNDS WHICH INHIBIT BETA-SECRETASE ACTIVITY AND METHODS OF USE THEREOF” (priority 2008, published 2013)

System: Aβ production
Assay: Cellular Aβ IC50 determination (memapsin 2 activity in a cellular assay of Aβ production)
Type: cell-based, Chinese hamster
Settings: Cricetulus griseus; Chinese hamster ovary cells over-expressing human APP695 with London and Swedish mutations, 24 h, Aβ40 sandwich ELISA; read-out: M2 IC50
Procedure: The potency of compounds against memapsin 2 activity was determined in a cellular assay of Aβ production. […] Chinese hamster ovary cells that over-express human APP695 with the London and Swedish mutations were seeded in multi-well plates at 10% confluency. Compounds are dissolved in DMSO to concentrations near 1 mM, and diluted into culture media to a final concentration near 4 μM (final 0.4% DMSO). Compounds were diluted serially and applied to cells in multi-well plates 48 h after seeding. Incubation was continued in 5% CO2 at 37° C. for 24 h. Aliquots were removed and assayed for […] content using a sandwich ELISA (BioSource International). Amount of Aβ40 over the range of concentration of compounds, relative to control incubations, were fit to a 4-parameter IC50 model.

Row | Compound | IC50
1 | Cc1csc(CN(C)C(=O)c2cccc(C(=O)N[C@@H](Cc3ccccc3)[C@H](O)[C@H]3CCCN3C(=O)OC(C)(C)C)c2)n1 [1-1, (R)-tert-butyl 2-((1S,2S)-1-hydroxy-2-(3-(methyl((4-methylthiazol-2-yl)methyl)carbamoyl)benzamido)-3-phenylpropyl)pyrrolidine-1-carboxylate] | > 1 µM
2 | Cc1csc(CN(C)C(=O)c2cccc(C(=O)N[C@@H](Cc3ccccc3)[C@H](O)[C@H]3CCCN3)c2)n1 [1-2, N1-((1R,2S)-1-hydroxy-3-phenyl-1-((R)-pyrrolidin-2-yl)propan-2-yl)-N3-methyl-N3-((4-methylthiazol-2-yl)methyl)isophthalamide] | > 1 µM
3 | Cc1cc(C(=O)N[C@@H](Cc2ccccc2)[C@H](O)[C@H]2CCCN2C(=O)OC(C)(C)C)cc(C(=O)N2CCC[C@@H]2c2nc(C)co2)c1 [1-6, (R)-tert-butyl 2-((1S,2S)-1-hydroxy-2-(3-methyl-5-((R)-2-(4-methyloxazol-2-yl)pyrrolidine-1-carbonyl)benzamido)-3-phenylpropyl)pyrrolidine-1-carboxylate] | > 1 µM
4 | Cc1cc(C(=O)N[C@@H](Cc2ccccc2)[C@H](O)[C@H]2CCCN2)cc(C(=O)N2CCC[C@@H]2c2nc(C)co2)c1 [1-8, N-((1R,2S)-1-hydroxy-3-phenyl-1-((R)-pyrrolidin-2-yl)propan-2-yl)-3-methyl-5-((R)-2-(4-methyloxazol-2-yl)pyrrolidine-1-carbonyl)benzamide] | > 1 µM
5 | C[C@@H](NC(=O)c1cc(C(=O)N[C@@H](Cc2ccccc2)[C@H](O)[C@H]2CCCN2)cc(N(C)S(C)(=O)=O)c1)c1ccccc1 [1-11, N1-((1R,2S)-1-hydroxy-3-phenyl-1-((R)-pyrrolidin-2-yl)propan-2-yl)-5-(N-methylmethylsulfonamido)-N3-((R)-1-phenylethyl)isophthalamide] | < 0.5 µM

Further lines, results first:

Row | IC50 | Compound
6 | > 1 µM | Cc1coc([C@H]2CCCN2C(=O)c2cccc(C(=O)N[C@@H](Cc3ccccc3)[C@H](O)[C@H]3CCCN3)c2)n1 [1-4, N-((1R,2S)-1-hydroxy-3-phenyl-1-((R)-pyrrolidin-2-yl)propan-2-yl)-3-((R)-2-(4-methyloxazol-2-yl)pyrrolidine-1-carbonyl)benzamide]
7 | > 1 µM | C[C@@H](NC(=O)c1cc(C(=O)N[C@@H](Cc2ccccc2)[C@H](O)[C@H]2CCCN2C(=O)OC(C)(C)C)cc(N(C)S(C)(=O)=O)c1)c1ccccc1 [1-5, (R)-tert-butyl 2-((1S,2S)-1-hydroxy-2-(3-(N-methylmethylsulfonamido)-5-((R)-1-phenylethylcarbamoyl)benzamido)-3-phenylpropyl)pyrrolidine-1-carboxylate]
8 | > 1 µM | Cc1csc(CN(C)C(=O)c2cc(C(=O)N[C@@H](Cc3ccccc3)[C@H](O)[C@H]3CCCN3C(=O)OC(C)(C)C)cc(-c3ncco3)c2)n1 [1-7, (R)-tert-butyl 2-((1S,2S)-1-hydroxy-2-(3-(methyl((4-methylthiazol-2-yl)methyl)carbamoyl)-5-(oxazol-2-yl)benzamido)-3-phenylpropyl)pyrrolidine-1-carboxylate]
9 | < 0.5 µM | Cc1csc(CN(C)C(=O)c2cccc(C(=O)N[C@@H](Cc3ccccc3)[C@H](O)[C@H]3C[C@@H](OCc4ccccc4)CN3)c2)n1 [1-9, N1-((1R,2S)-1-((2R,4R)-4-(benzyloxy)pyrrolidin-2-yl)-1-hydroxy-3-phenylpropan-2-yl)-N3-methyl-N3-((4-methylthiazol-2-yl)methyl)isophthalamide]
10 | > 1 µM | Cc1csc(CN(C)C(=O)c2cccc(C(=O)N[C@@H](Cc3ccccc3)[C@H](O)[C@H]3C[C@@H](O)CN3)c2)n1 [1-10, N1-((1R,2S)-1-hydroxy-1-((2R,4R)-4-hydroxypyrrolidin-2-yl)-3-phenylpropan-2-yl)-N3-methyl-N3-((4-methylthiazol-2-yl)methyl)isophthalamide]
